The source of these data is patent US20230330254A1 (Regeneron Pharmaceuticals, Inc., priority 2022, published 2023).

≈ marks a conversion by molar mass, not a printed value. Like-named read-outs stand apart in the source and are kept apart here. Where a SMILES comes first, the peptide text is derived from it. [ ]: non-standard residue; d: D form. The star is where a group is joined. Bip(2'-Et,4'-O(CH2)4NH2) = CCc1cc(OCCCCN)ccc1-c1ccc(C[C@H](N)C(=O)O)cc1; Malonyl(2,2-Me2,histaminyl) = CC(C)(C(=O)NCCc1cnc[nH]1)C(=O)*; Nva(5-(3,5-Me2Ph)) = Cc1cc(C)cc(CCC[C@H](N)C(=O)O)c1; Ala(1H-tetrazol-5-yl) = N[C@@H](Cc1nnn[nH]1)C(=O)O; αMePhe(2-F) = C[C@](N)(Cc1ccccc1F)C(=O)O A value given as a limit tells only on which side of the number the result lay.

A short description of data set [1]: Plasma stability of payloads and linker-payloads, monkey plasma. It is filed as in vitro ADME. As to conditions: pooled plasma. As to the method:
(§1) The plasma stability of payloads and linker payloads of the disclosure were measured. For the assay, pooled frozen plasma (human, mouse or monkey) was thawed in cold water or a 37° C. water bath prior to experiment. Plasma was centrifuged at 4000 rpm for 5 min if any clots were observed, they were subsequently removed. If required, the pH was adjusted to 7.4±0.1. For the preparation of compounds and positive controls, a 1 mM intermediate solution was prepared by diluting 10 μL of their stock solution with 90 μL DMSO; a 1 mM intermediate solution of the positive control (Propantheline) was prepared by diluting 10 μL of its stock solution with 90 μL ultrapure water. Subsequently, 100 μM dosing solution for each compound was prepared by diluting 20 μL of the intermediate solution (1 mM) with 180 μL 45% MeOH/H2O. 98 μL of plasma was spiked with 2 μL of dosing solution (100 μM) to achieve the final concentration of 2 μM in duplicate. Samples were then incubated at 37° C. in a water bath. […] At each time point, 400 μL of stop solution (200 ng/mL tolbutamide plus 200 ng/mL labetalol in 50% ACN/MeOH) was added to precipitate protein and mixed thoroughly. Sample plates were then centrifuged at 4,000 rpm for 10 min. An aliquot of supernatant (50 μL) was transferred from each well and mixed with 100 μL ultrapure water. The samples were then shaken at 800 rpm for approximately 10 min before submitting for LC-MS/MS analysis.

Data set [2] is described as follows: Plasma stability of payloads and linker-payloads, mouse plasma. It is filed as in vitro ADME. Particulars: mouse, pooled plasma. As for the experimental part: as §1
A further data set has as its target hERG potassium channels (Homo sapiens, UniProt Q12809). Description: cell-based. As to the method: For the assay, CHO cells stably expressing hERG potassium channels were plated and cultured for at least 2 days in a humidified and air-controlled (5% CO2) incubator at 37° C. prior to use in electrophysiological experiments. Cells were then harvested using TrypLE and resuspended in physiological solution (10 mM HEPES, 80 mM NaCl, 4 mM KCl, 2 mM CaCl2, 1 mM MgCl2, 5 mM Glucose, 60 mM NM DG, pH 7.4). Test compounds were dissolved in water to obtain stock solutions for different test concentrations. […] One 40 μL addition of the vehicle was applied, followed by a 300s baseline recording period. […] Recordings were required to pass quality control over the duration of the recording or the well was abandoned, and the compound was retested, all automatically set by PatchControl. […] A minimum of 2 replicates per concentration were obtained. […] Curve-fitting and IC50 value calculations were performed by GraphPad Prism 5.0.

The nature of another data set: Water solubility. It is filed as physicochemical. Particulars: Table 5C.
Data set [3] can be described thus: Plasma stability of payloads (t½).
Data set [4] has as its target T1, human glucagon-like peptide 2 receptor (GLP2R) (Homo sapiens, UniProt O95838).
T1 construct: full-length human GLP1R, cynomolgus GLP1R, human glucagon receptor (GCGR), human glucagon-like peptide 2 receptor (GLP2R); expressed in transfected cells; host or cells: HEK293/CRE-Luc
T1 sequence (O95838 1-553): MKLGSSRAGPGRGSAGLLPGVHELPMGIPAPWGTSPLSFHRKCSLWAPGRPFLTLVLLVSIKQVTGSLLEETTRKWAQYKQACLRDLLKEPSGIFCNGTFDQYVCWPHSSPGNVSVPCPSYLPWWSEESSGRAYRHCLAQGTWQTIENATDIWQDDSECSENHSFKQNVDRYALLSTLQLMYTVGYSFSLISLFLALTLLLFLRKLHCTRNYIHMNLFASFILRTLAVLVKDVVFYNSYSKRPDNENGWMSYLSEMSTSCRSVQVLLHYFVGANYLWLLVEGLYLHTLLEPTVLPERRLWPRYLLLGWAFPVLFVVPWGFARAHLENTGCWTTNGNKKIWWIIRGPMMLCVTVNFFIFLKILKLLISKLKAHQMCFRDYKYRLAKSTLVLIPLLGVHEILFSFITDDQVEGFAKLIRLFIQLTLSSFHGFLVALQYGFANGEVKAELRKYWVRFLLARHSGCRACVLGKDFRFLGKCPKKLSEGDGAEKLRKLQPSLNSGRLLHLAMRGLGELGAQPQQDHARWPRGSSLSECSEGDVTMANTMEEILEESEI
Nature of the data set: Luciferase reporter assay, HEK293/CRE-Luc/hGLP2R (Example 17). It is filed as cell-based. As to conditions: Table 28; CRE-dependent luciferase reporter activity. In general terms: Reporter assays use an easily measured gene product as a stand-in for the process of interest.

In a further data set the target is human GLP1R (Homo sapiens, UniProt P43220). Description: CRE-Luc cAMP reporter assay, HEK293/CRE-Luc/hGLP1R (Example 24). It is filed as cell-based. On the set-up: engineered to express full-length human GLP1R, cynomolgus GLP1R; expressed in transfected cells; host or cells: HEK293/CRE-Luc. From the text: To test the activity of GLP1R agonist payloads, GLP1R agonist linker-payloads (LPs), and anti-GLP1R antibody-tethered ligands (ATLs) of the invention, a cell-based cAMP responsive luciferase reporter assay was developed. To generate the assay cell line, the firefly luciferase gene was placed under the control of a cAMP response element (CRE) located upstream of a minimal promoter and transfected into HEK293 cells and referred to herein as HEK293/CRE-Luc cells. HEK293/CRE-Luc cells were then engineered to express full-length human GLP1R (HEK293/CRE-Luc/hGLP1R), cynomolgus GLP1R (HEK293/CRE-Luc/mfGLP1R), or mouse GLP1R (HEK293/CRE-Luc/mGLP1R).
Serial dilutions of free payload and linker payloads (LP) were performed in 100% DMSO (ATCC, #4-X-5), followed by 1:100 dilution in assay media. Test articles were added to cells (1:5 dilution) with the last well in each serial dilution series serving as a blank control containing only assay media for antibodies and ATLs or assay media with 0.2% DMSO for payloads and LPs. After a 5-hour incubation at 37° C., luciferase activity was determined by addition of ONE-Glo reagent (Promega, #E6130) followed by measurement of relative light units (RLUs) on an EnVision Plate Reader (Perkin Elmer).
EC50 values for luminescence assays were determined using a four-parameter logistic equation over a 12-point dose response curve (GraphPad Prism).

Chain of human GLP1R (P43220 24-463): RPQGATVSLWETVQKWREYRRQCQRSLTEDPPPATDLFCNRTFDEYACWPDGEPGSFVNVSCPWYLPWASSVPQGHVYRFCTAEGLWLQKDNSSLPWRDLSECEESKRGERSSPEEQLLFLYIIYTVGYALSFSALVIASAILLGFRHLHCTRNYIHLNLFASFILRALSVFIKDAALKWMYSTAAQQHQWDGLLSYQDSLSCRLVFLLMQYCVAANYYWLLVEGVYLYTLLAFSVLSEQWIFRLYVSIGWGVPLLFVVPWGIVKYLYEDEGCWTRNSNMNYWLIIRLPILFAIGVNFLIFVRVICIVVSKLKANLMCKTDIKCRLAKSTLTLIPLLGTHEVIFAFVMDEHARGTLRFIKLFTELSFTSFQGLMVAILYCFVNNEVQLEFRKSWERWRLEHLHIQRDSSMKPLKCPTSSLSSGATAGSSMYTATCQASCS
Chain of hERG potassium channels (Q12809 whole entry): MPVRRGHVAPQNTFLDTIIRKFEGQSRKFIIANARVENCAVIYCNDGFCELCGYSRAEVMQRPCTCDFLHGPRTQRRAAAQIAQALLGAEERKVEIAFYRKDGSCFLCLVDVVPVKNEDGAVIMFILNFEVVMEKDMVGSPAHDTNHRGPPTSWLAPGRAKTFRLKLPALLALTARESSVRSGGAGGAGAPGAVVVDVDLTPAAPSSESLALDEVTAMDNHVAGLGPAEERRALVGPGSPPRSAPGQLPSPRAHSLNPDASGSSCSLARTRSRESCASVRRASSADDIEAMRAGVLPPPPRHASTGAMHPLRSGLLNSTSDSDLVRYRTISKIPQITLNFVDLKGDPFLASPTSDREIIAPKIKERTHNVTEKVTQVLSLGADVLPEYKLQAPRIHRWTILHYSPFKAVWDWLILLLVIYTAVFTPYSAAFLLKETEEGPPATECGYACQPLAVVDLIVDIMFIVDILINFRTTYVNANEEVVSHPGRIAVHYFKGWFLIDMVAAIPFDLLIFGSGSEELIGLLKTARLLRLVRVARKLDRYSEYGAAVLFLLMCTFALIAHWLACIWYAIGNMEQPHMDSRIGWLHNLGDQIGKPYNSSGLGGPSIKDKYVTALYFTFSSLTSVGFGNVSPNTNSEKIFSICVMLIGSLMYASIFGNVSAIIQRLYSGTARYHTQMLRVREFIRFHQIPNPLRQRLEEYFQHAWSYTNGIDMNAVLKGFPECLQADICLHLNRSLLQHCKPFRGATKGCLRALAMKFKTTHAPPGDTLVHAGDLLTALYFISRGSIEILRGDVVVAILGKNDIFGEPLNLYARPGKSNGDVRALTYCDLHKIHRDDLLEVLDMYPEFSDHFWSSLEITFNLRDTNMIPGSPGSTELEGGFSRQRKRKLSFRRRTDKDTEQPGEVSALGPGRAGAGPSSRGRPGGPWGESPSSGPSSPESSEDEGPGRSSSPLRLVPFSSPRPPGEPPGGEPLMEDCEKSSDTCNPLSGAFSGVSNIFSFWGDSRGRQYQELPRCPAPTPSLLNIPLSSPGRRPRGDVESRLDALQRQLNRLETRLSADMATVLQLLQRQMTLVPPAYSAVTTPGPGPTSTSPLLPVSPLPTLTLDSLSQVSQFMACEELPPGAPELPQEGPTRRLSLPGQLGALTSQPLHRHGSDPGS

For the compound `CCc1cc(OCCCCn2cc(COCCOCCOCCOCCOCCOCCOCCOCCN)nn2)ccc1-c1ccc(C[C@H](NC(=O)[C@H](CC(=O)O)NC(=O)[C@H](CO)NC(=O)[C@@H](NC(=O)C(C)(Cc2ccccc2F)NC(=O)[C@@H](NC(=O)CNC(=O)[C@H](Cc2nn[nH]n2)NC(=O)C(C)(C)C(=O)NCCc2cnc[nH]2)[C@@H](C)O)[C@@H](C)O)C(=O)N[C@@H](CCCc2cc(C)cc(C)c2)C(N)=O)cc1` (stereo partly shown) [LP11, NH2-PEG8-triazole-P8], the half-life at 2 µM in data set [1] (pH 7.4, Monkey, assay time 3 days, Table 5B, read-out: plasma stability T½) is greater than 49.4 h; in data set [1] (pH 7.4, Table 5A, monkey plasma, tested time C (3 days), read-out: plasma stability T½ (hr), monkey), greater than 49.4 h; in data set [1] (pH 7.4, Table 5C, read-out: Plasma Stability Monkey T1/2) it was greater than 48 h; in data set [2] (pH 7.4, Mouse, assay time 3 days, Table 5B, read-out: plasma stability T½), greater than 144 h; in data set [2] (pH 7.4, Table 5A, mouse plasma, tested time C (3 days), read-out: plasma stability T½ (hr), mouse), greater than 173 h; in data set [2] (pH 7.4, Table 5C, read-out: Plasma Stability Mouse T½), greater than 168 h. Besides, the IC50 (commonly the point on the concentration scale where inhibition reaches its midpoint) was greater than 100000 nM at hERG potassium channels and greater than 100000 nM on hERG potassium channels (human, pH 7.4). Further, in “Water solubility”, the solubility – broadly, how much of the substance goes into solution per volume – was found to be 60 mM (≈ 119 mg/mL).

As to `CCc1cc(OCCCCN)ccc1-c1ccc(C[C@H](NC(=O)[C@H](CC(=O)O)NC(=O)[C@H](CO)NC(=O)[C@@H](NC(=O)[C@](C)(Cc2ccccc2F)NC(=O)[C@@H](NC(=O)CNC(=O)[C@H](Cc2nn[nH]n2)NC(=O)C(C)(C)C(=O)NCCc2cnc[nH]2)[C@@H](C)O)[C@@H](C)O)C(=O)N[C@@H](CCCc2cc(C)cc(C)c2)C(N)=O)cc1` [P9, (8S,14S,17S,20S,23S,26S)-8-((2H-tetrazol-5-yl)methyl)-26-(((S)-1-(((S)-1-amino-5-(3,5-dimethylphenyl)-1-oxopentan-2-yl)amino)-3-(4′-(4-aminobutoxy)-2′-ethyl-[1,1′-biphenyl]-4-yl)-1-oxopropan-2-yl)carbamoyl)-17-(2-fluorobenzyl)-14,20-bis((R)-1-hydroxyethyl)-23-(hydroxymethyl)-1-(1H-imidazol-5-yl)-5,5,17-trimethyl-4,6,9,12,15,18,21,24-octaoxo-3,7,10,13,16,19,22,25-octaazaoctacosan-28-oic acid] ({Malonyl(2,2-Me2,histaminyl)}-[Ala(1H-tetrazol-5-yl)]GT[αMePhe(2-F)]TSD[Bip(2'-Et,4'-O(CH2)4NH2)][Nva(5-(3,5-Me2Ph))]-NH2), the “Plasma stability t½” value in data set [3] is greater than 57.8 h.

As to `CCc1cc(OCCCCn2cc(COCCOCCOCCOCCOCCOCCOCCOCCN)nn2)ccc1-c1ccc(C[C@H](NC(=O)[C@H](CC(=O)O)NC(=O)[C@H](CO)NC(=O)[C@@H](NC(=O)[C@](C)(Cc2ccccc2F)NC(=O)[C@@H](NC(=O)CNC(=O)[C@H](Cc2nn[nH]n2)NC(=O)C(C)(C)C(=O)NCCc2cnc[nH]2)[C@@H](C)O)[C@@H](C)O)C(=O)N[C@@H](CCCc2cc(C)cc(C)c2)C(N)=O)cc1` [M3190], the EC50 (as a rule, the midpoint of the concentration-response curve) was greater than 200 nM in data set [4] and 0.0168 nM on human GLP1R (Table 40, CRE-dependent reporter activity, no unit printed in table (text b1912 reads values as M)). Moreover, on human GLP1R (HEK293, read-out: HEK293/CRE-Luc/hGLP1R Emax (% GLP-1)), the Emax amounted to 93.9%.
